Test results taken from ChEMBL document CHEMBL1201862, “PubChem BioAssay data set” (2004).
Calls of active or inactive are those of the source.

How the values were obtained:
[1] = Luminescence Cell-Based Dose Retest to Confirm Inhibitors of Cancer Stem Cells. [Related pubchem assays (depositor defined):AID2717, AID2721]; assay type: functional; settings: Homo sapiens
[2] = A cytotoxicity screen of small molecule inhibitors of the PhoP region in Salmonella typhi identified in the primary screen. [Related pubchem assays: 1850, 1864, 1985 ]; assay type: functional
[3] = molecular target: FAD-linked sulfhydryl oxidase ALR (Homo sapiens, UniProt P55789); test: inhibitors of human ALR sulfhydryl oxidase, dose response, biochemical, H2O2 detection, luminescence, cherry-pick (AID 493248)
[4] = M. tuberculosis H37Rv growth inhibitors, H37Rv strain (AID 1626); assay type: functional
[5] = system: H4; test: Luminescence Cell-Based Dose Response HTS to Identify Activators of 5'UTR Stem-Loop Driven Prion Protein mRNA Translation in H4 Neuroglioblastoma Cells. [Related pubchem assays: 1829 (Project Summary), 1814 (Primary HTS)]; assay type: functional; settings: Homo sapiens
[6] = molecular target: T1, Sentrin-specific protease 6 (Homo sapiens, UniProt Q9GZR1); assay type: functional;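 note: Luminescence-based dose-response confirmatory assay of SENP6 inhibition, following up an ultra-high-throughput screen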
T1 sequence (Q9GZR1 whole entry): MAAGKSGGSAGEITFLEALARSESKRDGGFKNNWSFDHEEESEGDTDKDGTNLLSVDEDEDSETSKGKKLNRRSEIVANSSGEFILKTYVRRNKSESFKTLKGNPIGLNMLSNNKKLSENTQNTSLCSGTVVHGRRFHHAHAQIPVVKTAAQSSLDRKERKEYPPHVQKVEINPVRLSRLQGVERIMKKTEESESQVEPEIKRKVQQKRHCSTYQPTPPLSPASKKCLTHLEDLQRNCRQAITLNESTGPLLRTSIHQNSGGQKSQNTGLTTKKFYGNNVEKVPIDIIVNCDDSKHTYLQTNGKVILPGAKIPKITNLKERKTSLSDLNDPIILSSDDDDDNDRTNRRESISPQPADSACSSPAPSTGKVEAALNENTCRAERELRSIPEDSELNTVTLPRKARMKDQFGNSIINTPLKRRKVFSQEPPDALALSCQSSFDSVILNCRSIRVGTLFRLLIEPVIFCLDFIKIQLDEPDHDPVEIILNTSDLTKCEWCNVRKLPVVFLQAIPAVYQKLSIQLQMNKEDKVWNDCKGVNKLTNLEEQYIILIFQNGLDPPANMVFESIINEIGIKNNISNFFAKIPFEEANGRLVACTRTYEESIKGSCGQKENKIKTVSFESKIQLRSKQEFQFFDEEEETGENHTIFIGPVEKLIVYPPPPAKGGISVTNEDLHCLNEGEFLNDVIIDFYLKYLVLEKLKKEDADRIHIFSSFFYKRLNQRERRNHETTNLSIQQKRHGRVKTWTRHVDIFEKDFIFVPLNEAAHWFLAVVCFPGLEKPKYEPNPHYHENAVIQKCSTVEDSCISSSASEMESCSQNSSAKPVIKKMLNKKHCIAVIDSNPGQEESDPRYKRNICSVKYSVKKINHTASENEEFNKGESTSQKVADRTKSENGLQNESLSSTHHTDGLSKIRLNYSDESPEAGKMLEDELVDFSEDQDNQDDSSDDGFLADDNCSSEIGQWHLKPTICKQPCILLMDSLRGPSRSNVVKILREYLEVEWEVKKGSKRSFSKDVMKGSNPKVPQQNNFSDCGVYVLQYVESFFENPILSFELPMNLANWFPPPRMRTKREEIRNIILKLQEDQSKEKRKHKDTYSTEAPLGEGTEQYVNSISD

[7] = molecular target: T2, Sentrin-specific protease 8 (Homo sapiens, UniProt Q96LD8); assay type: functional;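 note: luminescence read-out of SENP8 inhibition, dose-response confirmation following an ultra-high-throughput screen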
T2 sequence (Q96LD8 whole entry): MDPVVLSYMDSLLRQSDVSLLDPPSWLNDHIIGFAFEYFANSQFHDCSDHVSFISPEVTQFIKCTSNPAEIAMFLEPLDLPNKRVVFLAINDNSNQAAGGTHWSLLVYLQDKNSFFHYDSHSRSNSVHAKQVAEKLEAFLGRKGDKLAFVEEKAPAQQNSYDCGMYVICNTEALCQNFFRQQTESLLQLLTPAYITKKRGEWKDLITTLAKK

[8] = Luminescence Cell-Based Dose Response to Identify Activators of Luciferase Translation or Activity in H4-C Neuroglioblastoma Cells. [Related pubchem assays: 1829 (Project Summary), 1814 (Primary HTS)]; assay type: functional
[9] = Luminescence Cell-Based Dose Response to Identify Activators of 5'UTR Stem-Loop Driven Prion Protein mRNA Translation in H4-C Neuroglioblastoma Cells. [Related pubchem assays: 1829 (Project Summary), 1814 (Primary HTS)]; assay type: functional
[10] = molecular target: T3, Caspase-3 (Homo sapiens, UniProt P42574); assay type: functional;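 note: Dose-response selectivity test against caspase-3 for candidate inhibitors of sentrin-specific proteases (SENPs)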
T3 sequence (P42574 whole entry): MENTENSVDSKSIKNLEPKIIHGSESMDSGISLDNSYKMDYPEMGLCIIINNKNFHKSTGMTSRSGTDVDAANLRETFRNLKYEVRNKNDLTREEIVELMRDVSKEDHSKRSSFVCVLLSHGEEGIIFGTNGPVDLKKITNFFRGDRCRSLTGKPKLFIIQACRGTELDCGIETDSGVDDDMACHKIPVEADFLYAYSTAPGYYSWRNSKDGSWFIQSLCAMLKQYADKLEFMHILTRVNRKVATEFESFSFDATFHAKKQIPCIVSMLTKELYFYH

[11] = Luminescence Cell-Based Dose Confirmation to Identify Activators of 5'UTR Stem-Loop Driven Alpha-Synuclein mRNA Translation in H4 Neuroglioblastoma Cells. [Related pubchem assays: 1829 (Project Summary), 1814 (Primary HTS)]; assay type: functional
[12] = Luminescence Cell-Based Dose Confirmation HTS to Identify Activators of 5'UTR Stem-Loop Driven Alpha-Synuclein mRNA Translation in H4 Neuroglioblastoma Cells. [Related pubchem assays: 1829 (Project Summary), 1814 (Primary HTS)]; assay type: functional
[13] = Luminescence Cell-Based Dose Response HTS to Identify Activators of Luciferase Translation or Activity in H4 […] Cells. [Related pubchem assays: 1829 (Project Summary), 1814 (Primary HTS)]; assay type: functional
[14] = molecular target: T4, Sentrin-specific protease 7 (Homo sapiens, UniProt Q9BQF6); assay type: functional;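 note: Luminescence-based dose-response confirmation of ultra-high-throughput screening hits, measuring inhibition of SENP7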
T4 sequence (Q9BQF6 whole entry): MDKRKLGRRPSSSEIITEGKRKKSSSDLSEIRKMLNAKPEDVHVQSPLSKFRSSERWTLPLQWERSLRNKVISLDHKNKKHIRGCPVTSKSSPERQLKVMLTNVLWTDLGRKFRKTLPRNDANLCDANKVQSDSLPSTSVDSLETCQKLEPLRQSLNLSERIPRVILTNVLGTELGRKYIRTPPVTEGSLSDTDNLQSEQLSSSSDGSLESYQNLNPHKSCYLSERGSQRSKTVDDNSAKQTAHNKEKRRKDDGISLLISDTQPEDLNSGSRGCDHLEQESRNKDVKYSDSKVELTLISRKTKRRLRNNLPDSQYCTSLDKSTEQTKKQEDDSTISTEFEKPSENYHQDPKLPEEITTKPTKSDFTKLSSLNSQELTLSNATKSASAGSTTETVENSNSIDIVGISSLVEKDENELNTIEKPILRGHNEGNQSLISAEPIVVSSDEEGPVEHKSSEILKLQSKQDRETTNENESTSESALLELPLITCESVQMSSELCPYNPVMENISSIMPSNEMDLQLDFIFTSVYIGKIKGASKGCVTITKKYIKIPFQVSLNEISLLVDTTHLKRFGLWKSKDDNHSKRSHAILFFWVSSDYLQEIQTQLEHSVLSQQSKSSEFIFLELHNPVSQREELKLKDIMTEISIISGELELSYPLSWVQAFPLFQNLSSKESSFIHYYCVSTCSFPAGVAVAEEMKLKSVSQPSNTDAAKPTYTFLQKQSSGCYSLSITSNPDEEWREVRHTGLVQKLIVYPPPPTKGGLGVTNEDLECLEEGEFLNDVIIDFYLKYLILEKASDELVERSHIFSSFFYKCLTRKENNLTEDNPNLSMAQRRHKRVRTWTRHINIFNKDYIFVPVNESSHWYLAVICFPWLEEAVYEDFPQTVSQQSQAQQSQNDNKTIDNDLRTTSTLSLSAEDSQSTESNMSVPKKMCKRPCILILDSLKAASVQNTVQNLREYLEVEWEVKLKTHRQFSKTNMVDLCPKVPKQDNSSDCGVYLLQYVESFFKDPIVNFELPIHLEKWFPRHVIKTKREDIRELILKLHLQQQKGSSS

[15] = molecular target: T5, Mannose-6-phosphate isomerase (Homo sapiens, UniProt P34949); test: inhibitors of human PMI, primary screen, biochemical, fluorescence intensity, coupled assay (AID 1209)
T5 sequence (P34949 whole entry): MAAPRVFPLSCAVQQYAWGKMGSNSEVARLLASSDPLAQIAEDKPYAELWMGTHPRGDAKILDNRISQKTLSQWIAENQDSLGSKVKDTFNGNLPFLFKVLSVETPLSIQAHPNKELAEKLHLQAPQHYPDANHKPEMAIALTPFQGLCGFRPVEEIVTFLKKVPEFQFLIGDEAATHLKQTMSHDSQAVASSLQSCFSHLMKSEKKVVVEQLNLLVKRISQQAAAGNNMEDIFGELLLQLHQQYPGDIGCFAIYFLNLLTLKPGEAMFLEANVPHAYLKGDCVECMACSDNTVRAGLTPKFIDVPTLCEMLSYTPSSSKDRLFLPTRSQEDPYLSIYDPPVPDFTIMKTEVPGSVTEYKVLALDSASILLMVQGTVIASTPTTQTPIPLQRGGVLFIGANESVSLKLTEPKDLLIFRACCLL

[16] = molecular target: T5, Mannose-6-phosphate isomerase; test: human PMI inhibitors, high substrate, primary screen, biochemical, fluorescence intensity, high mannose 6-phosphate (AID 1220)

FAD-linked sulfhydryl oxidase ALR, sequence (P55789 whole entry): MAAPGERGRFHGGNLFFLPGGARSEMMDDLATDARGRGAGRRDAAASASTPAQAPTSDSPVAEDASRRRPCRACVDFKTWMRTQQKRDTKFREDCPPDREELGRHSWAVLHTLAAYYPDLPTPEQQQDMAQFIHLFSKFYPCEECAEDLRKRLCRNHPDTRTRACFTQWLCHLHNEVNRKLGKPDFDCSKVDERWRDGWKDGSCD

## O=C(NCc1ccco1)c1ccc2c(c1)N(Cc1ccccc1)CCS2
[1]
  AC50: 11.3 µM (active)
[2]
  EC50: > 50 µM (active)
[3]
  AC50: 81.2 µM (active)

## CCOC(=O)c1ccc(NC(C)=C2C(=O)NC(=O)NC2=O)cc1
[4]
  IC50: > 100 µM (active)

## CCCCC(=O)Nc1ccc2c(c1)oc1ccccc12
[4]
  IC50: > 100 µM (active)

## COc1ccc(NC2=CC(c3ccc(OC)cc3)N(c3ccc(OC)cc3)C2=O)cc1 (centres undefined)
[4]
  IC50: > 100 µM (active)

## O=C1c2ccccc2C(=O)N1CCSc1ccccc1
[5]
  EC50: < 0.1 µM (active)
[6]
  IC50: 30.4 µM (active)
[7]
  IC50: 35 µM (active)
[8]
  EC50: 420 nM (active)
[9]
  EC50: 1.41 µM (active)
[10]
  IC50: 14.5 µM (active)
[11]
  EC50: 279 nM (active)
[12]
  EC50: 21.9 µM (active)
[13]
  EC50: 0.18 µM (active)
[14]
  IC50: 9.56 µM (active)

## CC(C)CCSc1cc(NCCO)c([N+](=O)[O-])c2nonc12
[15]
  IC50: > 50 µM (not active)
[16]
  IC50: > 50 µM (not active)

## c1ccc(CSCc2cn3ccsc3n2)cc1
[5]
  EC50: 7.85 µM (active)
[15]
  IC50: > 50 µM (not active)
[16]
  IC50: > 50 µM (not active)
[12]
  EC50: 0.562 µM (active)
[13]
  EC50: 40.7 µM (active)

## C=CCSc1nnc(NC(=O)CSc2nc3ccccc3o2)s1
[2]
  EC50: > 50 µM (active)
